According to patent US20240150330A1, “CHROMANS AND BENZOFURANS AS 5-HT1A AND TAAR1 AGONISTS” (Sunovion Pharmaceuticals Inc., priority 2021, published 2024):

Assays:
[1] = target: T1, human 5-HT1A receptor (Homo sapiens, UniProt P08908); assay: 5-HT1A Radioligand Binding Assay; conditions: 1 μM test compound; competition with 0.9 nM [3H]-8-OH-DPAT; membranes of 5-HT1A expressing CHO-K1 cells
T1 construct: expressed in transfected cells; host or cells: CHO-K1
T1 sequence (P08908 1-422): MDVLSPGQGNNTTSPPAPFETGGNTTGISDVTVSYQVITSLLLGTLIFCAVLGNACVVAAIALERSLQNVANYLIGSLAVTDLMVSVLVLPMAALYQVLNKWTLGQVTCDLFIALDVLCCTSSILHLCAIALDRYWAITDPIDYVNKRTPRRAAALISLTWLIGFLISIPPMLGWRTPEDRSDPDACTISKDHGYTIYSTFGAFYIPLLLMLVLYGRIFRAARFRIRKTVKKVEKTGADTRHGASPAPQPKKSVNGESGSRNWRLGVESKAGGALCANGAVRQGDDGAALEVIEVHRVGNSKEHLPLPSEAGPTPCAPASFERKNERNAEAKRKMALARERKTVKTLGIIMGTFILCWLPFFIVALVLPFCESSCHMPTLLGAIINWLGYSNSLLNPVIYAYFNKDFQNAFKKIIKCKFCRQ
Procedure: Cells expressing the human 5-HT1A receptor were grown to mid-log phase in complete culture medium and then scraped from the culture vessels in ice-cold Ca^2+- and Mg^2+-free Phosphate-buffered saline. The cells were then centrifuged for 10 minutes at 5,000×g and 4° C. and the pellets resuspended in buffer A (15 mM Tris-HCl pH 7.5; 2 mM MgCl2; 0.3 mM EDTA; 1 mM EGTA) and homogenized in a glass-glass homogenizer. The crude membrane fraction was collected by two consecutive centrifugation steps at 35,000×g and 4° C. for 30 minutes separated by a wash step with buffer A. The final membrane pellet was suspended in buffer B (75 mM Tris-HCl pH 7.5; 12.5 mM MgCl2; 0.3 mM EDTA; 1 mM EGTA; 250 mM sucrose) and flash-frozen in liquid nitrogen. Protein content was determined by the BCA method (Interchim, UP40840A).
Radioligand competition binding was performed in duplicate in the wells of a 96 well plate (Master Block, Greiner, 786201) containing binding buffer (50 mM Tris, 5 mM CaCl2, 0.1% ascorbic acid, 10 μg/ml saponin, pH7.4), membrane extracts prepared from the 5-HT1A expressing CHO-K1 cell line (7 μg protein/well), reference tracer (0.9 nM [^3H]-8-OH-DPAT) and test compound in a final volume of 0.1 ml. Nonspecific binding was determined by co-incubation with 200-fold excess of reference competitor (5-HT). The samples were incubated for 1 hour at 25° C., and then filtered over GF/B Unifilter plates (Perkin Elmer 6005177) presoaked in 0.5% PEI, using a Filtermate Harvester (Perkin Elmer, C96162). Filters were washed six times with 0.5 ml ice-cold buffer (50 mM Tris pH 7.4) and 50 μl of Microscint 20 (Packard) were added to each well. The plates were incubated 15 minutes on an orbital shaker and then counted with a TopCount NXT (Packard, C384V01) for 1 minute/well.
Compounds were tested at 1 and 10 μM concentrations, in duplicate: […]

[2] = target: T2, TAAR1 receptor (UniProt Q96RJ0); assay: TAAR1 Agonist cAMP Assay; assay type: cell-based, human or mouse; conditions: CHO-K1 cells expressing TAAR1; cAMP HTRF; 30 minutes at room temperature
T2 sequence (Q96RJ0 1-339): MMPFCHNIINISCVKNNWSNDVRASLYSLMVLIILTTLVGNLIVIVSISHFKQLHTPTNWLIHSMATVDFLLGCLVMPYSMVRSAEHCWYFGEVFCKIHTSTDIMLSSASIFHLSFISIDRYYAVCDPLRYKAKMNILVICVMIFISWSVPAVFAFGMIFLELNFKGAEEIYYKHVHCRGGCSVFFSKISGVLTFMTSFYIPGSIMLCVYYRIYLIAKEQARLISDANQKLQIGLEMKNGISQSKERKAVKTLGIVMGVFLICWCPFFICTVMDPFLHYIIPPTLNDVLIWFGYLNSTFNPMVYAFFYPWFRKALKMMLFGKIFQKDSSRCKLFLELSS
Procedure: CHO-K1 cells expressing the human TAAR1 receptor (Accession number NP_612200.1) or mouse TAAR1 receptor (Accession number NP_444435.1) were grown in media (Advanced DMEM supplemented with 1% dialyzed fetal bovine serum) without antibiotics. The cells were detached by gentle flushing with phosphate buffered saline containing 5 mM EDTA, recovered by centrifugation and resuspended in assay buffer (Krebs-Ringers Henseleit buffer: 5 mM KCl, 1.25 mM MgSO4, 124 mM NaCl, 25 mM HEPES, 13.3 mM Glucose, 1.25 mM KH2PO4, 1.45 mM CaCl2, 0.5 g/L BSA, supplemented with 1 mM isobutylmethylxanthine). Testing was performed in 384-well plates. 5 μl of cells (3000 cells) were mixed with 5 μl of the test compound diluted in assay buffer and then incubated for 30 minutes at room temperature. cAMP levels were determined using the Cisbio cAMP Gs dynamic HTRF kit (Cisbio, Bedford, MA). The results of the testing are shown in Table 3, with EC50 ranges designated as follows: • A=0.1 μM to 1 μM • B=0.01 μM to <0.1 μM • C=0.001 μM to <0.01 μM • D=0.0001 μM to <0.001 μM

| inhibition at 1 µM [1] [%] | EC50 [2] [µM] | SMILES |
| --- | --- | --- |
| > 90 | 0.1 to 1 | CNC[C@H]1CCOc2c(-c3ccncc3)cccc21 [Compound 4, (S)—N-methyl-1-(8-(pyridin-4-yl)chroman-4-yl)methanamine] |
| > 50 | 0.01 to 0.1 | CNC[C@@H]1CCOc2c(-c3ccncc3)cccc21 [Compound 3, (R)—N-methyl-1-(8-(pyridin-4-yl)chroman-4-yl)methanamine] |
| > 50 | – | NC[C@@H]1CCOc2c(-c3ccncc3)cccc21 [Compound 1, (R)-(8-(pyridin-4-yl)chroman-4-yl)methanamine] |
| > 90 | – | NC[C@H]1CCOc2c(-c3ccncc3)cccc21 [Compound 2, (S)-(8-(pyridin-4-yl)chroman-4-yl)methanamine] |
